Converted amounts (≈) assume the structure as drawn. Where two headings read alike, the source gives them in different places.
Key:
E. faecalis HM-201 = experiment: MIC assay; assay type: cell-based
E. faecalis HM-934 = experiment: MIC assay; assay type: cell-based
E. faecalis NR-31970 = experiment: MIC assay; assay type: cell-based
E. faecium ATCC 700221 = experiment: MIC assay; assay type: cell-based
E. faecium HM-952 = experiment: MIC assay; assay type: cell-based
E. faecium HM-965 = experiment: MIC assay; assay type: cell-based
E. faecium HM-970 = experiment: MIC assay; assay type: cell-based
E. faecium NR-31909 [1] = experiment: MIC assay; assay type: cell-based
E. faecium NR-31912 = experiment: MIC assay; assay type: cell-based
E. faecium NR-31933 = experiment: MIC assay; assay type: cell-based
E. faecium NR-31937 = experiment: MIC assay; assay type: cell-based
E. faecium NR-31954 = experiment: MIC assay; assay type: cell-based
E. faecium NR-32053 = experiment: MIC assay; assay type: cell-based
E. faecium NR-32094 = experiment: MIC assay; assay type: cell-based
E. avium ATCC 14025 = experiment: MIC assay; assay type: cell-based
[2] = test system: E. casseliflavus ATCC 700327; experiment: MIC assay; assay type: cell-based
E. durans ATCC 11576 = experiment: MIC assay; assay type: cell-based
E. gallinarum ATCC 49373 = experiment: MIC assay; assay type: cell-based
E. hirae ATCC 10541 = experiment: MIC assay; assay type: cell-based
E. raffinosus ATCC 49464 = experiment: MIC assay; assay type: cell-based
[3] = test system: E. saccharolyticus ATCC 43076; experiment: MIC assay; assay type: cell-based
[4] = test system: Listeria Monocytogenes ATCC 19111; experiment: MIC assay; assay type: cell-based
[5] = test system: Staphylococcus aureus USA300; experiment: MIC assay; assay type: cell-based
[6] = test system: Staphylococcus epidermidis NRS101; experiment: MIC assay; assay type: cell-based
[7] = test system: Bacillus subtilis ATCC11774; experiment: MIC assay; assay type: cell-based
[8] = test system: E. faecalis and E. faecium strains; experiment: MIC assay, panel of 25 E. faecalis and E. faecium strains; assay type: cell-based
[9] = test system: all tested Enterococcus strains; experiment: MIC assay, all tested Enterococcus strains; assay type: cell-based
E. faecium NR-31909 [10] = experiment: Multi-step resistance selection assay; assay type: cell-based; settings: starting passage 13
E. faecium NR-31909 [11] = experiment: E. faecium septicemic peritonitis mouse model; assay type: in vivo, BALB/c mice
mouse gut microbiome = experiment: Mouse gut microbiome diversity in fecal pellets; assay type: in vivo, C57BL/6 mice; settings: 20 mg/kg PO QD; CAI0019 days 7 or 14, linezolid day 7, vs pre-treatment
E. faecalis HM-334 = settings: cited from earlier work
E. faecalis HM-335 = settings: cited from earlier work
E. faecalis NR-31971 = settings: cited from earlier work
E. faecalis NR-31972 = settings: cited from earlier work
E. faecium HM-968 = settings: cited from earlier work
E. faecium NR-28978 = settings: cited from earlier work
E. faecium NR-31903 = settings: cited from earlier work
E. faecium NR-31914 = settings: cited from earlier work
E. faecium NR-31916 = settings: cited from earlier work
E. faecium NR-32052 = settings: cited from earlier work
E. faecium NR-32065 = settings: cited from earlier work
[12] = 5% CO2 atmosphere at 37° C, no CAs, expresses MpsAB homologs

In the case of `CC(=O)NC[C@H]1CN(c2ccc(N3CCOCC3)c(F)c2)C(=O)O1` [LNZ, linezolid], the MIC (E. faecalis HM-201; 5% CO2 atmosphere at 37° C) is reported as 2.96 µM (≈ 0.999 µg/mL), the MIC (E. faecalis HM-201; Enterococcus faecalis, HM201) is reported as 2.96 µM (≈ 0.999 µg/mL) and the MIC (E. faecalis HM-934; 5% CO2 atmosphere at 37° C) is reported as 2.96 µM (≈ 0.999 µg/mL). The MIC (E. faecalis HM-934; Enterococcus faecalis, HM934) was 2.96 µM (≈ 0.999 µg/mL), the MIC (E. faecalis NR-31970; 5% CO2 atmosphere at 37° C) was 2.96 µM (≈ 0.999 µg/mL) and the MIC (E. faecalis NR-31970; Enterococcus faecalis, NR31970) was 2.96 µM (≈ 0.999 µg/mL). It also gave an MIC (E. faecium ATCC 700221; 5% CO2 atmosphere at 37° C) of 2.96 µM (≈ 0.999 µg/mL), an MIC (E. faecium ATCC 700221; Enterococcus faecium, ATCC700221) of 2.96 µM (≈ 0.999 µg/mL) and an MIC (E. faecium HM-952; 5% CO2 atmosphere at 37° C) of 2.96 µM (≈ 0.999 µg/mL). The MIC (E. faecium HM-952; Enterococcus faecium, HM952) was 2.96 µM (≈ 0.999 µg/mL), the MIC (E. faecium HM-965; 5% CO2 atmosphere at 37° C) was 2.96 µM (≈ 0.999 µg/mL) and the MIC (E. faecium HM-965; Enterococcus faecium, HM965) was 2.96 µM (≈ 0.999 µg/mL). The MIC (E. faecium HM-970; 5% CO2 atmosphere at 37° C) was 2.96 µM (≈ 0.999 µg/mL), the MIC (E. faecium HM-970; Enterococcus faecium, HM970) was 2.96 µM (≈ 0.999 µg/mL) and the MIC (E. faecium NR-31909 [1]; 5% CO2 atmosphere at 37° C) was 2.96 µM (≈ 0.999 µg/mL). For the same molecule, the MIC (E. faecium NR-31909 [1]; Enterococcus faecium, NR31909) was 2.96 µM (≈ 0.999 µg/mL), the MIC (E. faecium NR-31912; 5% CO2 atmosphere at 37° C) was 2.96 µM (≈ 0.999 µg/mL) and the MIC (E. faecium NR-31912; Enterococcus faecium, NR31912) was 2.96 µM (≈ 0.999 µg/mL). It also gave an MIC (E. faecium NR-31933; 5% CO2 atmosphere at 37° C) of 2.96 µM (≈ 0.999 µg/mL), an MIC (E. faecium NR-31933; Enterococcus faecium, NR31933) of 2.96 µM (≈ 0.999 µg/mL) and an MIC (E. faecium NR-31937; 5% CO2 atmosphere at 37° C) of 2.96 µM (≈ 0.999 µg/mL). It also gave an MIC (E. faecium NR-31937; Enterococcus faecium, NR31937) of 2.96 µM (≈ 0.999 µg/mL), an MIC (E. faecium NR-31954; 5% CO2 atmosphere at 37° C) of 2.96 µM (≈ 0.999 µg/mL) and an MIC (E. faecium NR-31954; Enterococcus faecium, NR31954) of 2.96 µM (≈ 0.999 µg/mL). For the same molecule, the MIC (E. faecium NR-32053; 5% CO2 atmosphere at 37° C) was 2.96 µM (≈ 0.999 µg/mL), the MIC (E. faecium NR-32053; Enterococcus faecium, NR32053) was 2.96 µM (≈ 0.999 µg/mL) and the MIC (E. faecium NR-32094; 5% CO2 atmosphere at 37° C) was 1.48 µM (≈ 0.499 µg/mL). It also gave an MIC (E. faecium NR-32094; Enterococcus faecium, NR32094) of 1.48 µM (≈ 0.499 µg/mL), an MIC (E. avium ATCC 14025; 5% CO2 atmosphere at 37° C) of 2.96 µM (≈ 0.999 µg/mL) and an MIC (E. avium ATCC 14025; Enterococcus avium, ATCC14025) of 2.96 µM (≈ 0.999 µg/mL). It also gave an MIC ([2]; 5% CO2 atmosphere at 37° C) of 2.96 µM (≈ 0.999 µg/mL), an MIC ([2]; Enterococcus casseliflavus, ATCC700327) of 2.96 µM (≈ 0.999 µg/mL) and an MIC (E. durans ATCC 11576; 5% CO2 atmosphere at 37° C) of 2.96 µM (≈ 0.999 µg/mL). For the same molecule, the MIC (E. durans ATCC 11576; Enterococcus durans, ATCC11576) was 2.96 µM (≈ 0.999 µg/mL), the MIC (E. gallinarum ATCC 49373; 5% CO2 atmosphere at 37° C) was 2.96 µM (≈ 0.999 µg/mL) and the MIC (E. gallinarum ATCC 49373; Enterococcus gallinarum, ATCC49373|GALLINARUM) was 2.96 µM (≈ 0.999 µg/mL). It also gave an MIC (E. hirae ATCC 10541; 5% CO2 atmosphere at 37° C) of 2.96 µM (≈ 0.999 µg/mL), an MIC (E. hirae ATCC 10541; Enterococcus hirae, ATCC10541) of 2.96 µM (≈ 0.999 µg/mL) and an MIC (E. raffinosus ATCC 49464; 5% CO2 atmosphere at 37° C) of 2.96 µM (≈ 0.999 µg/mL). For the same molecule, the MIC (E. raffinosus ATCC 49464; Enterococcus raffinosus, ATCC49464) was 2.96 µM (≈ 0.999 µg/mL), the MIC [3] was 2.96 µM (≈ 0.999 µg/mL) and the MIC ([3]; 5% CO2 atmosphere at 37° C) was 2.96 µM (≈ 0.999 µg/mL). It also gave an MIC ([4]; 5% CO2 atmosphere at 37° C, encodes only α-CA, no MpsAB homologs) of 2.96 µM (≈ 0.999 µg/mL), an MIC ([4]; Listeria monocytogenes, ATCC19111) of 2.96 µM (≈ 0.999 µg/mL) and an MIC [5, 12] of 1.48 µM (≈ 0.499 µg/mL). For the same molecule, the MIC ([5]; Staphylococcus aureus, USA300) was 1.48 µM (≈ 0.499 µg/mL), the MIC [6, 12] was 2.96 µM (≈ 0.999 µg/mL) and the MIC ([6]; Staphylococcus epidermidis, NRS101) was 2.96 µM (≈ 0.999 µg/mL). It also gave an MIC ([7]; 5% CO2 atmosphere at 37° C, encodes both MpsAB and CAs) of 1.48 µM (≈ 0.499 µg/mL), an MIC ([7]; Bacillus subtilis, ATCC11774) of 1.48 µM (≈ 0.499 µg/mL) and an MIC50 ([8]; read-out: Ef MIC50) of 2.96 µM (≈ 0.999 µg/mL). For the same molecule, the MIC90 ([8]; read-out: Ef MIC90) was 2.96 µM (≈ 0.999 µg/mL), the “MIC shift in the presence of CO2” value ([9]; 5% CO2 versus ambient air) was “no MIC shift” and the MIC50 ([9]; Enterococcus, read-out: All Enterococci spp. MIC50) was 2.96 µM (≈ 0.999 µg/mL). The MIC90 ([9]; Enterococcus, read-out: All Enterococci spp. MIC90) was 2.96 µM (≈ 0.999 µg/mL), the MIC increase (E. faecium NR-31909 [10]) was 2 fold MIC and the “survival (mice rescued)” value (E. faecium NR-31909 [11]; 20 mg/kg PO once-daily for three days, n = 6/group) was 83%. The “reduction of VRE bioburden compared to vehicle” value (E. faecium NR-31909 [11]; kidney, liver and spleen, each tissue, 20 mg/kg PO QD three days) was “at least 2 Log10 CFU/mL”, the “reduction of VRE bioburden” value (E. faecium NR-31909 [11]; kidney, liver and spleen, three-day treatment) was greater than 99% and the “change in microbiome diversity in fecal samples” value (mouse gut microbiome) was “no significant change”. The MIC (E. faecalis HM-334; 5% CO2 atmosphere at 37° C) was 2.96 µM (≈ 0.999 µg/mL), the MIC (E. faecalis HM-334; ambient air at 37° C) was 2.96 µM (≈ 0.999 µg/mL) and the MIC (E. faecalis HM-335; 5% CO2 atmosphere at 37° C) was 2.96 µM (≈ 0.999 µg/mL). For the same molecule, the MIC (E. faecalis HM-335; ambient air at 37° C) was 1.48 µM (≈ 0.499 µg/mL), the MIC (E. faecalis NR-31971; 5% CO2 atmosphere at 37° C) was 2.96 µM (≈ 0.999 µg/mL) and the MIC (E. faecalis NR-31971; ambient air at 37° C) was 2.96 µM (≈ 0.999 µg/mL). The MIC (E. faecalis NR-31972; 5% CO2 atmosphere at 37° C) was 2.96 µM (≈ 0.999 µg/mL), the MIC (E. faecalis NR-31972; ambient air at 37° C) was 1.48 µM (≈ 0.499 µg/mL) and the MIC (E. faecium HM-968; 5% CO2 atmosphere at 37° C) was 2.96 µM (≈ 0.999 µg/mL). The MIC (E. faecium HM-968; ambient air at 37° C) was 1.48 µM (≈ 0.499 µg/mL), the MIC (E. faecium NR-28978; 5% CO2 atmosphere at 37° C) was 2.96 µM (≈ 0.999 µg/mL) and the MIC (E. faecium NR-28978; ambient air at 37° C) was 2.96 µM (≈ 0.999 µg/mL). The MIC (E. faecium NR-31903; 5% CO2 atmosphere at 37° C) was 47.4 µM (≈ 16 µg/mL), the MIC (E. faecium NR-31903; ambient air at 37° C) was 47.4 µM (≈ 16 µg/mL) and the MIC (E. faecium NR-31914; 5% CO2 atmosphere at 37° C) was 2.96 µM (≈ 0.999 µg/mL). The MIC (E. faecium NR-31914; ambient air at 37° C) was 2.96 µM (≈ 0.999 µg/mL), the MIC (E. faecium NR-31916; 5% CO2 atmosphere at 37° C) was 2.96 µM (≈ 0.999 µg/mL) and the MIC (E. faecium NR-31916; ambient air at 37° C) was 2.96 µM (≈ 0.999 µg/mL). The MIC (E. faecium NR-32052; 5% CO2 atmosphere at 37° C) was 1.48 µM (≈ 0.499 µg/mL), the MIC (E. faecium NR-32052; ambient air at 37° C) was 1.48 µM (≈ 0.499 µg/mL) and the MIC (E. faecium NR-32065; 5% CO2 atmosphere at 37° C) was 1.48 µM (≈ 0.499 µg/mL). The MIC (E. faecium NR-32065; ambient air at 37° C) was 0.74 µM (≈ 0.25 µg/mL).

— article PMC12862769 (ACS infectious diseases, 2025)
